From US20250243210A1, “CRBN E3 LIGASE LIGAND COMPOUND, PROTEIN DEGRADER DEVELOPED BASED THEREON AND THEIR APPLICATIONS” (GLUETACS THERAPEUTICS (SHANGHAI) CO., LTD., priority 2021, published 2025)
Where two headings read alike, the source gives them in different places.

Experiments:
[1] = target: human Cereblon WT GST-tagged protein (Homo sapiens (Human), UniProt Q96SW2); experiment: CRBN binding, HTRF (CEREBLON BINDING kit)
Experimental: Determination of CRBN-Binding Affinity of Compounds
The CEREBLON BINDING kits (specification: 10,000 tests; product number: Catalog #64BDCRBNPEH; CISBIO company) was used to determine the CRBN binding ability of the compounds to be tested through a HTRF method (homogeneous time-resolved fluorescence). The specific methods are as follows: • 1. […] Then, 2.5 μL of (human Cereblon WT GST-tagged protein) solution was added to each well. Finally, 5 μL of the uniformly mixed thalidomide-Red reagent and GST Eu antibody working solution were added to each of the above wells. […] The blank control wells were sequentially added with 2.5 μL of diluent #9 (1×) solution, 2.5 μL of ligand binding buffer, and 5 μL of uniformly mixed thalidomide-Red reagent and GST Eu antibody working solution. • 4. […] The corresponding CRBN binding inhibition rate was calculated using the following method: […]

[2] = tested on: MGC80-3; experiment: CCK-8 tumor cell proliferation, MGC80-3; type: cell-based, Human; conditions: read-out: IC50 for inhibiting the proliferation of tumor cells, MGC80-3
Experimental: (§1) Determination of half inhibitory concentration (IC50) of the compounds against tumor cells:
(§2) The tumor cells used herein were cultured in a cell culture medium listed in table 6 at 37° C. in an incubator with 5% CO2. Prior to experimentation, all cells used were correctly identified by STR profiling, and tested negative for mycoplasma through routine screenings.
(§3) IC50 values of the compounds of the present disclosure (including the compounds in Table 4 and compounds of examples 1-72) were measured using the Meilun Cell Counting Kit-S kit from Dalian Meilun Biotech Co., Ltd. Assay details are as follows: tumor cells were seeded in a 96-well plate at a density listed in Table 7. After 24 h, 100 μL of the inoculated cells were treated with 0.5 μL of the compounds of the present disclosure (including the compounds in Table 4 and compounds of examples 1-72) at 10 different successively decreasing concentrations (starting at the highest concentration of 10 μM; 5-fold serial dilutions). After the cells were treated with the compounds of the present disclosure for a period of time (the treatment times listed in Table 7), the cell viability detection reagent was added to the culture medium for cell viability assessment according to the instructions provided with the CCK-8 kit. […] The growth inhibition of the compounds of the present disclosure on cells was plotted by Prism Graphpad software, and the IC50 values of the compounds of the present disclosure were calculated therefrom.

[3] = tested on: WSU-DLCL2; experiment: CCK-8 tumor cell proliferation, WSU-DLCL2; type: cell-based, Human; conditions: read-out: IC50 for inhibiting the proliferation of tumor cells, WSU-DLCL2
Experimental: as §1
(§4) The tumor cells used herein were cultured in a cell culture medium listed in table 6 at 37° C. in an incubator with 5% CO2.
(§5) After the cells were treated with the compounds of the present disclosure for a period of time (the treatment times listed in Table 7), the cell viability detection reagent was added to the culture medium for cell viability assessment according to the instructions provided with the CCK-8 kit. […] The growth inhibition of the compounds of the present disclosure on cells was plotted by Prism Graphpad software, and the IC50 values of the compounds of the present disclosure were calculated therefrom.

[4] = tested on: LNcap; experiment: CCK-8 tumor cell proliferation, LNcap; type: cell-based, Human; conditions: 96 h, read-out: IC50 for inhibiting the proliferation of tumor cells, LNcap
Experimental: as §1, §2, §3

[5] = tested on: PC-3; experiment: CCK-8 tumor cell proliferation, PC-3; type: cell-based, Human; conditions: PC-3, 96 h, read-out: IC50 for inhibiting the proliferation of tumor cells, PC-3
Experimental: as §1, §4, §5

[6] = tested on: DU-145; experiment: CCK-8 tumor cell proliferation, DU-145; type: cell-based, Human; conditions: DU-145, 96 h, read-out: IC50 for inhibiting the proliferation of tumor cells, DU-145
Experimental: as §1, §4, §5

[7] = tested on: SU-DHL-6; experiment: CCK-8 tumor cell proliferation, SU-DHL-6; type: cell-based; conditions: Homo sapiens, SU-DHL-6, 72 h, read-out: IC50 for inhibiting the proliferation of tumor cells, SU-DHL-6
Experimental: as §1, §4, §5

[8] = tested on: Kasumi-1; experiment: CCK-8 tumor cell proliferation, Kasumi-1; type: cell-based; conditions: Homo sapiens, Kasumi-1, 72 h, read-out: IC50 for inhibiting the proliferation of tumor cells, Kasumi-1
Experimental: as §1, §4, §5

[9] = tested on: Hep3B2.1-7; experiment: CCK-8 tumor cell proliferation, Hep3B2.1-7; type: cell-based, Human; conditions: Homo sapiens, Hep3B2.1-7, 96 h, read-out: IC50 for inhibiting the proliferation of tumor cells, Hep3B2.1-7
Experimental: as §1, §2, §3

[10] = Homo sapiens, MGC-803, MGC80-3, 96 h
[11] = Homo sapiens, WSUDLCL2, WSU-DLCL2, 96 h

human Cereblon WT GST-tagged protein, sequence (Q96SW2 whole entry): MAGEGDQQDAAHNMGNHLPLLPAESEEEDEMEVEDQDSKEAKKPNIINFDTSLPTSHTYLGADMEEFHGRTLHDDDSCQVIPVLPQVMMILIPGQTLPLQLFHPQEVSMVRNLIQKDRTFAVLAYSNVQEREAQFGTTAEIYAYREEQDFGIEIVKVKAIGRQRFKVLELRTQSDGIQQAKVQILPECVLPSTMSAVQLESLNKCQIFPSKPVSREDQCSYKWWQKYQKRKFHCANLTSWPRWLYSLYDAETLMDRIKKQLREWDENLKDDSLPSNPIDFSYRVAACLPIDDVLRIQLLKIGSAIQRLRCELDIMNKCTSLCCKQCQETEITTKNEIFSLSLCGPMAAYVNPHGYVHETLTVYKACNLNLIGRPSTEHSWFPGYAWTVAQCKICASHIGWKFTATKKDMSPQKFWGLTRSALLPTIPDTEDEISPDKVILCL

O=C1CCC(N2C(=O)c3ccc(N4CC5CCC4CN5)cc3C2=O)C(=O)N1 (stereo not shown) [GT-03076, 5-(2,5-diazabicyclo[2.2.2]octan-2-yl)-2-(2,6-dioxopiperidin-3-yl)isoindoline-1,3-dione]
IC50 [1]: 650 nM

O=C1CCC(N2C(=O)c3ccc(N4CC5CC(C4)N5)cc3C2=O)C(=O)N1 (stereo not shown) [GT-03075, 5-(3,6-diazabicyclo[3.1.1]heptan-3-yl)-2-(2,6-dioxopiperidin-3-yl)isoindoline-1,3-dione]
IC50 [1]: 5090 nM

N#Cc1ccc(OC2CCC(NC(=O)c3ccc(N4CCC(CN5CC6CC(C5)N6c5ccc6c(c5)C(=O)N(C5CCC(=O)NC5=O)C6=O)CC4)nn3)CC2)cc1Cl (stereo not shown) [GT-03339, N-((1r,4r)-4-(3-chloro-4-cyanophenoxy)cyclohexyl)-6-(4-((6-(2-(2,6-dioxopiperidin-3-yl)-1,3-dioxoisoindolin-5-yl)-3,6-diazabicyclo[3.1.1]heptan-3-yl)methyl)piperidin-1-yl)pyridazine-3-carboxamide]
IC50 ([2]; MGC80-3, 96 h): 50 to 100 nM | IC50 ([3]; WSU-DLCL2, 96 h): 100 to 500 nM | IC50 [4]: 100 to 500 nM | IC50 [5]: 100 to 500 nM | IC50 [6]: 100 to 500 nM

CC1(C)[C@H](NC(=O)c2ccc(N3CCC(CN4C5CC4CN(c4ccc6c(c4)C(=O)N(C4CCC(=O)NC4=O)C6=O)C5)CC3)nn2)C(C)(C)[C@H]1Oc1ccc(C#N)c(Cl)c1 (stereo partly shown) [GT-03401, N-((1r,3r)-3-(3-chloro-4-cyanophenoxy)-2,2,4,4-tetramethylcyclobutyl)-6-(4-((3-(2-(2,6-dioxopiperidin-3-yl)-1,3-dioxoisoindolin-5-yl)-3,6-diazabicyclo[3.1.1]heptan-6-yl)methyl)piperidin-1-yl)pyridazine-3-carboxamide]
IC50 [2, 10]: 100 to 500 nM | IC50 [3, 11]: 1000 to 5000 nM | IC50 ([4]; Homo sapiens): 500 to 1000 nM | IC50 ([5]; Homo sapiens): 100 to 500 nM | IC50 ([6]; Homo sapiens): 500 to 1000 nM

CC1(C)[C@H](NC(=O)c2ccc(N3CCC(CN4CC5CC(C4)N5c4cc5c(cc4F)C(=O)N(C4CCC(=O)NC4=O)C5=O)CC3)nc2)C(C)(C)[C@H]1Oc1ccc(C#N)c(Cl)c1 (stereo partly shown) [GT-03403, N-((1r,3r)-3-(3-chloro-4-cyanophenoxy)-2,2,4,4-tetramethylcyclobutyl)-6-(4-((6-(2-(2,6-dioxopiperidin-3-yl)-6-fluoro-1,3-dioxoisoindolin-5-yl)-3,6-diazabicyclo[3.1.1]heptan-3-yl)methyl)piperidin-1-yl)nicotinamide]
IC50 [2, 10]: 500 to 1000 nM | IC50 [3, 11]: 5000 to 10000 nM | IC50 ([4]; Homo sapiens): 500 to 1000 nM | IC50 ([5]; Homo sapiens): 100 to 500 nM | IC50 ([6]; Homo sapiens): 100 to 500 nM

O=C1CCC(N2C(=O)c3cc(F)c(N4C5CNCC4C5)cc3C2=O)C(=O)N1 (stereo not shown) [GT-03106, 5-(3,6-diazabicyclo[3.1.1]heptan-6-yl)-2-(2,6-dioxopiperidin-3-yl)-6-fluoroisoindoline-1,3-dione]
IC50 [1]: 4040 nM

Cc1nc(Nc2ncc(C(=O)Nc3c(C)cccc3Cl)s2)cc(N2CCC(CN3CC4CCC(C3)N4c3cc4c(cc3F)C(=O)N(C3CCC(=O)NC3=O)C4=O)CC2)n1 (stereo not shown) [GT-03627, N-(2-chloro-6-methylphenyl)-2-((6-(4-((8-(2-(2,6-dioxopiperidin-3-yl)-6-fluoro-1,3-dioxoisoindolin-5-yl)-3,8-diazabicyclo[3.2.1]octan-3-yl)methyl)piperidin-1-yl)-2-methylpyrimidin-4-yl)amino)thiazole-5-carboxamide]
IC50 [7]: 100 to 500 nM | IC50 [8]: 100 to 500 nM

O=C1CCC(N2C(=O)c3ccc(N4C5CCC4CNC5)cc3C2=O)C(=O)N1 (stereo not shown) [GT-03210, 5-(3,8-diazabicyclo[3.2.1]octan-8-yl)-2-(2,6-dioxopiperidin-3-yl)isoindoline-1,3-dione]
IC50 [1]: 2690 nM

CC1(C)[C@H](NC(=O)c2ccc(N3CCC(CN4C5CCC4CN(c4ccc6c(c4)C(=O)N(C4CCC(=O)NC4=O)C6=O)C5)CC3)nn2)C(C)(C)[C@H]1Oc1ccc(C#N)c(Cl)c1 (stereo partly shown) [GT-03399, N-((1r,3r)-3-(3-chloro-4-cyanophenoxy)-2,2,4,4-tetramethylcyclobutyl)-6-(4-((3-(2-(2,6-dioxopiperidin-3-yl)-1,3-dioxoisoindolin-5-yl)-3,8-diazabicyclo[3.2.1]octan-8-yl)methyl)piperidin-1-yl)pyridazine-3-carboxamide]
IC50 [9]: 100 to 500 nM | IC50 [3, 11]: 500 to 1000 nM | IC50 ([4]; Homo sapiens): 100 to 500 nM | IC50 ([5]; Homo sapiens): 100 to 500 nM | IC50 ([6]; Homo sapiens): 100 to 500 nM

O=C1CCC(N2C(=O)c3cc(F)c(N4C5CCC4CNC5)cc3C2=O)C(=O)N1 (stereo not shown) [GT-03211, 5-(3,8-diazabicyclo[3.2.1]octan-8-yl)-2-(2,6-dioxopiperidin-3-yl)-6-fluoroisoindoline-1,3-dione]
IC50 [1]: 9800 nM

[2H]C1([2H])NC([2H])([2H])C([2H])([2H])N(c2cc3c(cc2F)C(=O)N(C2CCC(=O)NC2=O)C3=O)C1([2H])[2H] (stereo not shown) [GT-03108, 2-(2,6-dioxopiperidin-3-yl)-5-fluoro-6-(piperazin-1-yl-2,2,3,3,5,5,6,6-d8)isoindoline-1,3-dione]
IC50 [1]: 8750 nM

O=C1CCC(N2C(=O)c3cc(F)c(N4CC5CC(C4)N5)cc3C2=O)C(=O)N1 (stereo not shown) [GT-03109, 5-(3,6-diazabicyclo[3.1.1]heptan-3-yl)-2-(2,6-dioxopiperidin-3-yl)-6-fluoroisoindoline-1,3-dione]
IC50 [1]: 3550 nM

CC1(C)[C@H](NC(=O)c2ccc(N3CCC(CN4CC5CC(C4)N5c4ccc5c(c4)C(=O)N(C4CCC(=O)NC4=O)C5=O)CC3)nn2)C(C)(C)[C@H]1Oc1ccc(C#N)c(Cl)c1 (stereo partly shown) [GT-03400, N-((1r,3r)-3-(3-chloro-4-cyanophenoxy)-2,2,4,4-tetramethylcyclobutyl)-6-(4-((6-(2-(2,6-dioxopiperidin-3-yl)-1,3-dioxoisoindolin-5-yl)-3,6-diazabicyclo[3.1.1]heptan-3-yl)methyl)piperidin-1-yl)pyridazine-3-carboxamide]
IC50 [2, 10]: 100 to 500 nM | IC50 [3, 11]: 500 to 1000 nM | IC50 ([4]; Homo sapiens): 100 to 500 nM | IC50 ([5]; Homo sapiens): 100 to 500 nM | IC50 ([6]; Homo sapiens): 100 to 500 nM

O=C1CCC(N2C(=O)c3ccc(N4CC5CCC(C4)N5)cc3C2=O)C(=O)N1 (stereo not shown) [GT-03077, 5-(3,8-diazabicyclo[3.2.1]octan-3-yl)-2-(2,6-dioxopiperidin-3-yl)isoindoline-1,3-dione]
IC50 [1]: 5200 nM

O=C1CCC(N2C(=O)c3ccc(N4C5CNCC4C5)cc3C2=O)C(=O)N1 (stereo not shown) [GT-03100, 5-(3,6-diazabicyclo[3.1.1]heptan-6-yl)-2-(2,6-dioxopiperidin-3-yl)isoindoline-1,3-dione]
IC50 [1]: 9800 nM

Cc1nc(Nc2ncc(C(=O)Nc3c(C)cccc3Cl)s2)cc(N2CCC(CN3CC4CC(C3)N4c3cc4c(cc3F)C(=O)N(C3CCC(=O)NC3=O)C4=O)CC2)n1 (stereo not shown) [GT-03628, N-(2-chloro-6-methylphenyl)-2-((6-(4-((6-(2-(2,6-dioxopiperidin-3-yl)-6-fluoro-1,3-dioxoisoindolin-5-yl)-3,6-diazabicyclo[3.1.1]heptan-3-yl)methyl)piperidin-1-yl)-2-methylpyrimidin-4-yl)amino)thiazole-5-carboxamide]
IC50 [8]: 100 to 500 nM
